Experimental data as given in patent publication US5494932A, “Sulfonic stilbene derivatives in the treatment of viral disease” (Merrell Dow Pharmaceuticals Inc., priority 1991, dated 1996).
Read-outs that look alike come from different tables or passages of the source.

What was measured:
Format in all cases: cell-based, HIV-1 (human T cell line JM)
[1] = test system: HIV-1 strain GB8 in JM cells; assay: Acute HIV-1 (GB8) infection of JM cells: syncytial counts and p24 antigen; conditions: for Mean Syncytial Counts: at day 4 p.i.
Description: When evaluated in the human T cell line JM acutely infected with the GB8 virus, DIDS, H2 DIDS and SITS (Table I) suppressed virus-induced multinucleated giant cell formation (syncytia). […] We also examined the antiviral properties of these compounds in a second host-cell/virus system, i.e., the highly CD4+ C8166 cells infected with the Haitian strain of HIV-1, RF.
The cell lines used were the semi-mature human lymphoblastoid leukemia T cell line JM, the human T-lymphoblastoid C8166 cell line, the human cutaneous T cell lymphoma line H9 and, the human T cell transformed line MT-4. Stocks of HIV-1 strains RF and GB8 (kindly provided by Dr. Graham Farrar, Center for Applied Microbiological Research, Porton Dawn, England) were prepared from chronically infected H9 cells and acutely infected JM cells, respectively. Virus stocks consisted of cell-free growth medium (RPMI 1640 plus 10% fetal calf serum) containing freshly shed virus. Virus titres were determined by a standard plaque reduction assay.
Virus stocks (strains RF or GB8) were diluted into growth medium containing various concentrations of DIDS, H2 DIDS or SITS. The required number of cells were then immediately added and the virus allowed to absorb for 2 hours at 37° C. to give a multiplicity of infection (MOI) of 0.001 infectious units/cell. The virus-infected cells were pelleted, washed three times in phosphate buffered saline (PBS), and resuspended in fresh growth medium containing the appropriate concentrations of stilbene disulfonic acids. Cells were then distributed into 24-well culture plates (Falcon) and assayed as described below for virus infection. Alternatively, cells were first infected with HIV-1 (strains RF or GB8) for 2 hours at 37° C. at the above MOI. After extensive washing, cells were replated into fresh growth medium containing various concentrations of stilbene disulfonic acids. In the above experiments, syncytia were scored between 2 and 4 days postinfection (p.i.) in triplicate using an Olympus CK2 inverted microscope. The culture fluids were recovered between 3 and 5 days p.i., clarified by low speed centrifugation (2,000 rpm) for 5 minutes and the level of HIV-1 p24 core antigen in the supernatants was determined by p24 antigen ELISA (Coulter). The concentrations of stilbene disulfonic acids giving 50% inhibition of HIV-1 growth (IC50) were determined from the dose-response curves by linear regression analysis.
Protocol: JM cells were infected with HIV-1 to give a multiplicity of infection of 0.001. Virus adsorption was for 2 hours at room temperature. The cells were washed and distributed into wells containing different concentrations of test compounds and incubated. After 2 days the cells were observed and syncytia were counted. The cell-free supernatant fluids were harvested at 4 and 6 days post infection and assayed for levels of p24 viral core antigen and after 6 days the supernatants were also titrated to determine levels of infectivity.

[2] = test system: HIV-1 strain GB8 in JM cells; assay: Established HIV-1 (GB8) infection of JM cells, post-infection addition: syncytia and p24 antigen; conditions: 100 μg/ml
[3] = test system: HIV-1 strain GB8 in JM cells; assay: as above; conditions: for activity at 100 µg/mL: Human immunodeficiency virus 1, 75 h
Method: The stilbene disulfonic acids blocked HIV-1 replication when the compounds were added within 2 hours of virus adsorption, i.e., prior to virus penetration, and the cells were cultured in the presence of the inhibitors. These compounds were next examined for antiviral activity at later stages of the infection process. At a MOI of 0.01 infectious units/cell (GB8 virus), viral glycoproteins appear at the surface of JM cells by 24 hours post-infection (p.i.) and initiate fusion with neighboring CD4^+ cells; the syncytial numbers show a good correlation with the production of cell-free virus (Tyms et al., 1990).
In post-treatent experiments, cells were first infected with HIV-1 strain RF or GB8 for 2 hours at 37° C. at a MOI of 0.01 and allowed to grow for either 24 or 43 hours before replating into fresh growth medium containing 100 μg/ml of DIDS, H2 DIDS or SITS. Syncytia were then scored at 52 and 68 hours p.i. in triplicate, and p24 viral core antigen in culture fluids were assayed at 75 hours p.i. as described above.
Protocol: JM cells were infected with HIV at a multiplicity of infection of 0.00025 syncytial forming units per cell. Virus adsorption was at room temperature for one hour. The cells were then washed three times and distributed in wells of a tissue culture plate at a concentration of 2×10^5 cells/well. Either DIDS, SITS or H2 DIDS (all at 100 μg/ml) were added to wells at 0, 24, 43 and 51 hours post-infection. As virus controls some wells had no drug added. Syncytia were scored at 43, 52 and 68 hours post-infection. The cell-free supernatant fluids of the virus control wells were harvested after 33, 43, 51, 68 and 75 hours post-infection. All other wells were harvested 75 hours post-infection. The supernatant fluid was then assayed for p24 viral core antigen.

[4] = JM cells acutely infected with GB8
[5] = 100 μg/ml, time of addition 0 h p.i.
[6] = 100 μg/ml, time of addition 24 h p.i.
[7] = 100 μg/ml, time of addition 43h
[8] = 100 μg/ml, time of addition 43 h p.i.

Which “Mean Syncytial Counts 2 Days p.i.” value ([1]; 3 μg/ml) does the source give for `CC(=O)Nc1ccc(C=Cc2ccc(N=C=S)cc2S(=O)(=O)O)c(S(=O)(=O)O)c1` [SITS, 4-acetamido-4'-isothiocyanatostilbene-2,2'-disulfonic acid] here?
Its value is 93.

What about the “Mean Syncytial Counts” value ([1]; 6 μM) of the same molecule?
The value was 93.

And the “Mean Syncytial Counts 2 Days p.i.” value ([1]; 6 μg/ml)?
The value was 72.

And the “Mean Syncytial Counts” value ([1]; 12 μM)?
Its value is 72.

And the “Mean Syncytial Counts 2 Days p.i.” value ([1]; 12.5 μg/ml)?
The value was 63.

What about the “p24 4 days p.i.” value ([1]; 12.5 μg/ml) of the same molecule?
Its value is 185000 pg/mL.

What about the “p24 6 days p.i.” value ([1]; 12.5 μg/ml) of the same molecule?
Its value is 1.51 × 10^6 pg/m.

What about the “Mean Syncytial Counts” value ([1]; 25 μM) of the same molecule?
The value was 63.

What about the “Mean Syncytial Counts 2 Days p.i.” value ([1]; 25 μg/ml) of the same molecule?
Its value is 63.

And the “p24 4 days p.i.” value ([1]; 25 μg/ml)?
The value was 153000 pg/mL.

And the “p24 6 days p.i.” value ([1]; 25 μg/ml)?
Its value is 1.26 × 10^6 pg/m.

What about the “Mean Syncytial Counts” value ([1]; 50 μM) of the same molecule?
Its value is 63.

What about the “Mean Syncytial Counts 2 Days p.i.” value ([1]; 50 μg/ml) of the same molecule?
Its value is 15.

What about the “p24 4 days p.i.” value ([1]; 50 μg/ml) of the same molecule?
The value was 62500 pg/mL.

And the “p24 6 days p.i.” value ([1]; 50 μg/ml)?
The value was 2.45 × 10^5 pg/m.

And the “Mean Syncytial Counts” value ([1]; 100 μM)?
Its value is 15.

And the “Mean Syncytial Counts 2 Days p.i.” value ([1]; 100 μg/ml)?
Its value is 0.

What about the “p24 4 days p.i.” value ([1]; 100 μg/ml) of the same molecule?
Its value is 1140 pg/mL.

And the “p24 6 days p.i.” value ([1]; 100 μg/ml)?
Its value is 2.2 × 10^4 pg/m.

And the “Mean Syncytial Counts” value ([1]; 200 μM)?
The value was 0.

What about the activity at 25 µg/mL ([1]; Human immunodeficiency virus 1, 96 h, read-out: p24 4 days p.i., % Control) of the same molecule?
Its activity at 25 µg/mL is 100%.

What about the activity at 12.5 µg/mL ([1]; Human immunodeficiency virus 1, 96 h, 12.5 μg/ml, read-out: p24 4 days p.i., % Control) of the same molecule?
The activity at 12.5 µg/mL was 100%.

And the activity at 50 µg/mL ([1]; Human immunodeficiency virus 1, 96 h, 50 μg/ml, read-out: p24 4 days p.i., % Control)?
The activity at 50 µg/mL was 85%.

And the activity at 100 µg/mL ([1]; Human immunodeficiency virus 1, 96 h, 100 μg/ml, read-out: p24 4 days p.i., % Control)?
Its activity at 100 µg/mL is 1.6%.

And the activity at 200 µM ([1]; Human immunodeficiency virus 1, 144 h, read-out: P24 Antigen % Virus Control)?
The activity at 200 µM was 1.6%.

What about the activity at 12.5 µg/mL ([1]; Human immunodeficiency virus 1, 144 h, 12.5 μg/ml, read-out: p24 6 days p.i., % Control) of the same molecule?
The activity at 12.5 µg/mL was 69%.

And the activity at 25 µg/mL ([1]; Human immunodeficiency virus 1, 144 h, 25 μg/ml, read-out: p24 6 days p.i., % Control)?
The activity at 25 µg/mL was 58%.

And the activity at 50 µg/mL ([1]; Human immunodeficiency virus 1, 144 h, 50 µg/mL, GB8 in JM cells, day 6 p.i., read-out: P24 Antigen % Virus Control)?
Its activity at 50 µg/mL is 100%.

What about the activity at 50 µg/mL ([1]; Human immunodeficiency virus 1, 144 h, 50 μg/ml, read-out: p24 6 days p.i., % Control) of the same molecule?
The activity at 50 µg/mL was 11.2%.

And the activity at 100 µg/mL ([1]; Human immunodeficiency virus 1, 144 h, 100 µg/mL, GB8 in JM cells, day 6 p.i., read-out: P24 Antigen % Virus Control)?
The activity at 100 µg/mL was 85%.

And the activity at 100 µg/mL ([1]; Human immunodeficiency virus 1, 144 h, 100 μg/ml, read-out: p24 6 days p.i., % Control)?
Its activity at 100 µg/mL is 1%.

And the “inhibition of p24 viral core antigen” value [1, 4]?
The value was “dose-dependent inhibition”.

And the “virus-induced multinucleated giant cell formation (syncytia)” value [1, 4]?
Its value is “suppressed”.

What about the “order of antiviral potency” value ([1]; in all three host cell/virus systems (JM/GB8, C8166/RF, MT-4/RF)) of the same molecule?
The value was “DIDS>H2 DIDS>>SITS”.

What about the “Mean Syncytia 51 hrs” value ([2]; time of addition 0h) of the same molecule?
The value was 4.

And the “Mean Syncytia 51 hrs” value ([2]; time of addition 24h)?
Its value is 35.

What about the “Mean Syncytia 68 hrs” value ([3]; 100 μg/ml, time of addition 0h) of the same molecule?
Its value is 27.

And the “P24 Antigen (75 hours post-infection)” value ([3]; 100 μg/ml, time of addition 0 hours)?
Its value is 8680 pg/mL.

What about the “P24 Antigen 75 h” value [3, 5] of the same molecule?
The value was 6.7 ng/mL.

And the “Syncytia at 52h” value [3, 5]?
The value was 4.

What about the “Syncytia at 68h” value [3, 5] of the same molecule?
Its value is 27.

What about the “Mean Syncytia 68 hrs” value ([3]; 100 μg/ml, time of addition 24h) of the same molecule?
The value was 77.

What about the “P24 Antigen (75 hours post-infection)” value ([3]; 100 μg/ml, time of addition 24 hours) of the same molecule?
The value was 21669 pg/mL.

What about the “P24 Antigen 75 h” value [3, 6] of the same molecule?
Its value is 21.7 ng/mL.

And the “Syncytia at 52h” value [3, 6]?
Its value is 35.

And the “Syncytia at 68h” value [3, 6]?
Its value is 77.

What about the “Mean Syncytia 51 hrs” value [3, 7] of the same molecule?
Its value is 59.

What about the “Mean Syncytia 68 hrs” value [3, 7] of the same molecule?
The value was “As VC”.

What about the “P24 Antigen (75 hours post-infection)” value ([3]; 100 μg/ml, time of addition 43 hours) of the same molecule?
The value was 49245 pg/mL.

What about the “P24 Antigen 75 h” value [3, 8] of the same molecule?
The value was 49.3 ng/mL.

And the “Syncytia at 52h” value [3, 8]?
The value was 59.

What about the “Syncytia at 68h” value [3, 8] of the same molecule?
The value was 80.

And the “Mean Syncytia 68 hrs” value ([3]; 100 μg/ml, time of addition 51h)?
The value was “As VC”.

What about the “P24 Antigen (75 hours post-infection)” value ([3]; 100 μg/ml, time of addition 51 hours) of the same molecule?
Its value is 53830 pg/mL.

What about the activity at 100 µg/mL ([3]; 100 μg/ml, time of addition 24 h p.i., read-out: P24 Antigen 75 h, % (drug-free medium 100%)) of the same molecule?
Its activity at 100 µg/mL is 18.6%.

What about the activity at 100 µg/mL ([3]; 100 μg/ml, time of addition 43 h p.i., read-out: P24 Antigen 75 h, % (drug-free medium 100%)) of the same molecule?
Its activity at 100 µg/mL is 42.3%.

What about the activity at 100 µg/mL ([3]; read-out: P24 Antigen 75 h, % (drug-free medium 100%), 100 μg/ml, time of addition 0 h p.i.) of the same molecule?
The activity at 100 µg/mL was 7.4%.

What about the activity at 100 µg/mL ([3]; read-out: P24 Antigen (75 hours post-infection), %, 100 μg/ml, time of addition 0 hours) of the same molecule?
Its activity at 100 µg/mL is 7.4%.

And the activity at 100 µg/mL ([3]; read-out: P24 Antigen (75 hours post-infection), %, 100 μg/ml, time of addition 24 hours)?
Its activity at 100 µg/mL is 18.6%.

And the activity at 100 µg/mL ([3]; read-out: P24 Antigen (75 hours post-infection), %, 100 μg/ml, time of addition 43 hours)?
Its activity at 100 µg/mL is 42.3%.

What about the activity at 100 µg/mL ([3]; read-out: P24 Antigen (75 hours post-infection), %, 100 μg/ml, time of addition 51 hours) of the same molecule?
Its activity at 100 µg/mL is 47.2%.

And the “relative order of antiviral potency” value ([3]; established HIV-1 infections)?
Its value is “DIDS>H2 DIDS>>SITS”.

What about the “anti-syncytial activity relative to virus control” value ([3]; established infection) of the same molecule?
Its value is “no anti-syncytial activity”.

What about the “p24 antigen (in words)” value ([3]; established infection) of the same molecule?
The value was “slightly reduced”.
